Patent publication US20110110923A1, “FISH ASSAY FOR EML4 AND ALK FUSION IN LUNG CANCER” (The Brigham and Women's Hospital, Inc., priority 2008, published 2011)
“Also recorded” adds a separate entry of the source.

Tests used:
[1] = tested on: H3122 cell line (EML4-ALK variant 1); experiment: MTS cell growth assay, H3122; format: cell-based; settings: Homo sapiens, NCI-H3122, read-out: IC50, growth inhibition, H3122, 72 hours
Description: (§1) Growth and inhibition of growth was assessed by methoxy-tetrazolium salt (MTS) assay. This assay, a colorimetric method for determining the number of viable cells, is based on the bioreduction of 3-(4,5-dimethylthiazol-2-yl)-5-(3-carboxymethoxyphenyl)-2-(4-sulfophenyl)-2H-tetrazolium (MTS) by cells to a formazan product that is soluble in cell culture medium, can be detected spectrophotometrically. NSCLC cells were exposed to treatment for 72 hours and the number of cells used per experiment determined empirically. All experimental points were set up in six to twelve wells and all experiments were repeated at least three times. […] The curves were fitted using a non-linear regression model with a sigmoidal dose response.

[2] = tested on: H2228 cell line (EML4-ALK variant 3); experiment: MTS cell growth assay, H2228; format: cell-based; settings: Homo sapiens, NCI-H2228, read-out: IC50, growth inhibition, H2228, 72 hours
Description: as §1

[3] = tested on: DFCI032 cell line (EML4-ALK variant 1); experiment: MTS cell growth assay, DFCI032; format: cell-based; settings: Homo sapiens, read-out: IC50, growth inhibition, DFCI032, 72 hours
Description: as §1

[4] = tested on: PC-9 cell line (EGFR delE746_A750); experiment: MTS cell growth assay, PC-9; format: cell-based, human; settings: PC-9, 72 hours
From the text: All experimental points were set up in six to twelve wells and all experiments were repeated at least three times. […] The curves were fitted using a non-linear regression model with a sigmoidal dose response.

[5] = tested on: A549 cell line (K-Ras G12S); experiment: MTS cell growth assay, A549; format: cell-based, human; settings: A549, 72 hours
Description: as §1

H3122 cell line = experiment: Apoptosis by FACS (sub G1) and Western blot for cleaved PARP, H3122; format: cell-based, human; settings: H3122, 0.1 μM, 72 h
Description: (§2) The supernatant was used for subsequent procedures. […] Immunoblotting was performed according to the antibody manufacturers' recommendations. […] Total ERK1/2 and phospho-ERK1/2 (pT185/pY187) antibodies were purchased from Biosource International (Camarillo, Calif.).
Cells were collected and fixed in 40% ethanol for at least 1 hour (or until ready for the experiment) at 4° C. The fixed cells were treated with 0.5 mL of […] RNase A for 45 minutes at 37° C. and stained with […] propidium iodide (in 38 mM sodium citrate) for at least 30 minutes at room temperature in the dark. The stained cells were then analyzed for DNA content in a Becton Dickinson fluorescence-activated cell sorter using both ModFit (Verity Software House, Topsham, Me.) and CellQuest (Becton Dickinson, San Jose, Calif.) programs.

[6] = tested on: other cell lines (H2228, DFCI032, PC-9, A549); experiment: Growth arrest / apoptosis in the other NSCLC cell lines; format: cell-based, human; settings: other cell lines than H3122
Description: as §1, §2
Cells were collected and fixed in 40% ethanol for at least 1 hour (or until ready for the experiment) at 4° C. […] The stained cells were then analyzed for DNA content in a Becton Dickinson fluorescence-activated cell sorter using both ModFit (Verity Software House, Topsham, Me.) and CellQuest (Becton Dickinson, San Jose, Calif.) programs.

[7] = tested on: Akt, STAT3 and ERK 1/2 phosphorylation in H3122; experiment: Western blot of downstream signalling, H3122; format: cell-based, human; settings: H3122, 0.1 μM, 6 hours
Description: as §2

[8] = tested on: Akt, STAT3 and ERK 1/2 phosphorylation in H2228; experiment: Western blot of downstream signalling, H2228; format: cell-based, human; settings: H2228, 0.1 μM, 6 hours
Description: as §2

[9] = tested on: Akt, STAT3 and ERK 1/2 phosphorylation in DFCI032; experiment: Western blot of downstream signalling, DFCI032; format: cell-based, human; settings: DFCI032, 0.1 μM, 6 hours
Description: as §2

[10] = tested on: Akt, STAT3 and ERK 1/2 phosphorylation in PC-9; experiment: Western blot of downstream signalling, PC-9; format: cell-based, human; settings: PC-9, 0.1 μM, 6 hours
Description: as §2

Karpas 299 cells = settings: NPM-ALK positive lymphoma cells; cited from earlier work
[11] = in vivo; cited from earlier work
ALK kinase = ALK kinase (Homo sapiens, UniProt Q9UM73); settings: initial studies, Li et al.; read-out: IC50 (ALK inhibitors); cited from earlier work
Chain of ALK kinase (Q9UM73 19-1620): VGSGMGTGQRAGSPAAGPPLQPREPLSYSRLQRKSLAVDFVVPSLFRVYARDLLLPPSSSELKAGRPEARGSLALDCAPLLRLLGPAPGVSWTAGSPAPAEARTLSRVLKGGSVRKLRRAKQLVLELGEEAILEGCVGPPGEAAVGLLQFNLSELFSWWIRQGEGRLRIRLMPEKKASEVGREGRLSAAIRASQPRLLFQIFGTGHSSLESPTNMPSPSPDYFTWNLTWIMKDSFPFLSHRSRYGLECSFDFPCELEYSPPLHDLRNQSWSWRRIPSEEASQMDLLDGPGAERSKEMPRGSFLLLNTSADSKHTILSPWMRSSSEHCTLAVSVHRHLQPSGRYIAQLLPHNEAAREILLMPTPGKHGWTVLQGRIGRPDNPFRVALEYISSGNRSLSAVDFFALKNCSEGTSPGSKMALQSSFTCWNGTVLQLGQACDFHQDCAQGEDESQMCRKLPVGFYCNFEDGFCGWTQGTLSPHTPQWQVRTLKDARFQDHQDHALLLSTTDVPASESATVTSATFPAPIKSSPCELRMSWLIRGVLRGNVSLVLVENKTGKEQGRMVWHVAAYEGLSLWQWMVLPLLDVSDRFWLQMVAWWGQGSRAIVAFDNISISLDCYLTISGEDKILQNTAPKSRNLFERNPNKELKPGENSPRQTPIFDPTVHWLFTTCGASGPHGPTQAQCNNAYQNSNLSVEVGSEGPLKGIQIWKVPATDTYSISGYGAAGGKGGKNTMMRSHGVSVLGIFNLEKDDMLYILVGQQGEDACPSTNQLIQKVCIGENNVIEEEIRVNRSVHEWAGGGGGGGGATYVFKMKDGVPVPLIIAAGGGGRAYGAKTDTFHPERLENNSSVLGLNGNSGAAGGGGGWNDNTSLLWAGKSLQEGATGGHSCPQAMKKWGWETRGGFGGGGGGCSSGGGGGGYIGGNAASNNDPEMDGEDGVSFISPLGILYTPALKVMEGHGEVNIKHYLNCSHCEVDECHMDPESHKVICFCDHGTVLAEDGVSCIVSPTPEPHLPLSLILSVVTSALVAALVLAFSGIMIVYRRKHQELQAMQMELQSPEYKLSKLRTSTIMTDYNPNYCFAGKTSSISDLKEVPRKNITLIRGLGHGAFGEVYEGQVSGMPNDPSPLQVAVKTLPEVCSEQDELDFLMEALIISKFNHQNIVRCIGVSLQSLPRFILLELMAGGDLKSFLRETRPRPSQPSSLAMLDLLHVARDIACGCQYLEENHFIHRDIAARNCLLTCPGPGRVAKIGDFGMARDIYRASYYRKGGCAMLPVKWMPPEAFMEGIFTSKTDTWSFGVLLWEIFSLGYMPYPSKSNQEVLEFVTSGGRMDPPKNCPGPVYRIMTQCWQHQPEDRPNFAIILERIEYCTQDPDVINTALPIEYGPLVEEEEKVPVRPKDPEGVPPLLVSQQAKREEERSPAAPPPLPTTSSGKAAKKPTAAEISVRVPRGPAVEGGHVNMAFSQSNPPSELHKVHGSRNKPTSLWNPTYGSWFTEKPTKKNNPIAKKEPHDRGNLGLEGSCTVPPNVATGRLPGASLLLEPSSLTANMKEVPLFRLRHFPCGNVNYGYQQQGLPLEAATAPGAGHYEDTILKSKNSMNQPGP

[12] = tested on: EML4-ALK fusion transformed Ba/F3 models; settings: original study describing the EML4-ALK fusion gene; cited from earlier work

COc1cc(N2CCC(N3CCN(C)CC3)CC2)ccc1Nc1ncc(Cl)c(Nc2ccccc2S(=O)(=O)C(C)C)n1 [NVP-TAE684]
IC50 [1]: ~0.01 µM | IC50 [2]: 1 to 10 µM | IC50 [3]: 1 to 10 µM | growth: resistance to the inhibitor [4]: resistant | growth: resistance to the inhibitor [5]: resistant | 89 kDa cleaved PARP product (Western blot) (H3122 cell line): observed | apoptosis (FACS sub G1 fraction / cleaved PARP) (H3122 cell line): significant apoptosis | apoptosis (FACS sub G1 fraction / cleaved PARP) (H3122 cell line; listed as TAE-684): Significant apoptosis | growth arrest or apoptosis [6]: No growth arrest or apoptosis | Akt, STAT3 and ERK 1/2 phosphorylation [7]: substantial inhibition; also recorded: decrease | Akt, STAT3 and ERK 1/2 phosphorylation [8]: some but not complete inhibition; also recorded: only partial inhibition; also recorded: decrease | Akt, STAT3 and ERK 1/2 phosphorylation [9]: unchanged; also recorded: no inhibition | Akt, STAT3 and ERK 1/2 phosphorylation [10]: unchanged | IC50 (Karpas 299 cells): 0.002 to 0.005 µM | bioavailability [11]: good

C[C@@H](Oc1cc(-c2cnn(C3CCNCC3)c2)cnc1N)c1c(Cl)ccc(F)c1Cl [PF-02341066]
IC50 (Karpas 299 cells): 0.026 µM | bioavailability [11]: good

COc1cc2ncnc(Nc3ccc(O)c(Br)c3)c2cc1OC [WHI-P154]
IC50 (ALK kinase): ~5 µM | growth inhibition [12]: growth inhibition
